# Measured values from patent publication US7070983B2, “Mutant Pseudomonas putida strains and methods of use thereof” (priority 2003, dated 2006).
# Tests used:
# Format in all cases: cell-based, Pseudomonas putida
# parental strain KH146-2 = assay: Antibiotic growth suppression on LB agar
# Source text: (§1) Spontaneous streptomycin-resistant (Str), gentamicin-resistant (Gen) or rifampicin-resistant (Rif) mutants were obtained from colonies that grew within 3 days after wild-type cells were spread on LB agar containing various concentrations of antibiotic.
# We first isolated a number of spontaneous streptomycin-resistant (Str), gentamicin-resistant (Gen) and rifampicin-resistant (Rif) mutants of P. putida KH146-2. These mutants appeared at a frequency of 10^−5–10^−6 when KH146-2 cells were spread on LB agar containing various amounts of antibiotics. […] Forty mutants resistant to each antibiotic were randomly selected and examined for tolerance to 4-hydroxybenzoic acid (4HBA). 4HBA-tolerant strains, which could grow in the presence of 1% 4HBA, were detected among these antibiotic resistant mutants at a high frequency of 3 to 15% (Table 1). The highest frequency (15%) was detected in the mutants selected with 1000 μg ml^−1 of streptomycin. These 4HBA-tolerant isolates all grew as well as the parent strain on LB agar.
# [1] = test system: P. putida strain no. 10 (str-1); assay: Resistance level to antibiotic on LB agar; details: 1 days on LB agar
# Source text: as §1
# [2] = test system: P. putida strain no. 2 (str-1); assay: Resistance level to antibiotic on LB agar; details: 1 days on LB agar
# Source text: as §1
# [3] = test system: P. putida strain no. 3 (str-1); assay: Resistance level to antibiotic on LB agar; details: 1 days on LB agar
# Source text: as §1
# [4] = test system: P. putida strain no. 4 (str-1); assay: Resistance level to antibiotic on LB agar; details: 1 days on LB agar
# Source text: as §1
# [5] = test system: P. putida strain no. 5 (str-1); assay: Resistance level to antibiotic on LB agar; details: 1 days on LB agar
# Source text: as §1
# [6] = test system: P. putida strain no. 6 (str-1); assay: Resistance level to antibiotic on LB agar; details: 1 days on LB agar
# Source text: as §1
# [7] = test system: P. putida strain no. 8 (str-1); assay: Resistance level to antibiotic on LB agar; details: 1 days on LB agar
# Source text: as §1
# [8] = test system: P. putida strain no. 9 (str-2); assay: Resistance level to antibiotic on LB agar; details: 1 days on LB agar
# Source text: as §1
# [9] = test system: the eight Str mutants with increased tolerance to 4HBA; assay: Resistance level to streptomycin, Str mutants as a group
# Source text: as §1
# Streptomycin resistance frequently results from a mutation in the rpsL gene for the ribosomal protein S12 (Hosoya et al., ((1998) Antimirob Agents Chemother 42:204–2047); Inaoka et al., ((2001) J Bacteriol 183:4958–4963); Shima et al., ((1996) J Bacterial 178:7276–7284)). Rifampicin resistance results from a mutation in the rpoB gene (β-subunit of RNA polymerase) (Heep et al., ((1999) Antimicrob Agents Chemother 43:1497–1499); Jin and Gross, ((1988) J Mol Biol 202:45–58); Wichelhaus et al., ((1999) Antimicrob Agents Chemother 43:2813–2816); Hu et al., ((2002) J Bacteriol 184: 3984–3991)). We therefore sequenced and compared the rpsL gene and rpoB gene from the mutants to the wild-type strain.
# [10] = test system: strain no. 3 carrying plasmid pYI433 containing the wild-type rpsL gene; assay: Complementation experiment, streptomycin resistance; details: strain no. 3 carrying pYI433; about the same as wild-type levels
# Source text: To clone the rpsL gene, a 0.9-kb DNA region covering whole rpsL was amplified from the chromosomal DNA of P. putida KH146-2 using KDO DNA polymerase (Toyobo Biochemicals, Osaka). Oligonucleotide primers were designed according to the rpoC-rpsL-rpsG sequence of P. putida KT2440 (www.tigr.org); 5′-[…]-3′ (SEQ ID NO:7—nucleotides [nt]−368 to −341 upstream of rpsL) and 5′-[…]-3′ (SEQ ID NO:8—complementary to nt 107 to 135 downstream of rpsL). The amplified DNA fragments were cloned into plasmid pUC118 (Vieira and Messing, (1987) Methods Enzymol 153: 3–11) to confirm the sequence, then excised from the plasmids as a BamHI-SphI fragment using the restriction sites in the multi-cloning sequence of the vector and inserted between the BglII and SphI sites of the E. coli-Pseudomonas shuttle vector pNIT6010 carrying tet^R, a derivative of pNIT6011 (Nishijyo et al. (2001) Mol Microbiol 40:917–931). The resultant plasmid pYI433, as well as vector control pNIT6010, was introduced into the Str mutant no. 3 (str-1) by conjugation using E. coli HB101/pRK2013 as the helper (Comai et al. (1983) Plasmid 10:21–30). Fifty μg ml^−1 of tetracycline was used for selection of transformants.
# […]
smiles,measurement,setting,value
[H]/N=C(/N)N[C@H]1[C@H](O)[C@@H](O)[C@H](O[C@@H]2O[C@@H](C)[C@](O)(C=O)[C@H]2O[C@@H]2O[C@@H](CO)[C@H](O)[C@@H](O)[C@@H]2NC)[C@@H](N/C(N)=N\[H])[C@@H]1O [streptomycin],Concentration completely suppressing growth,parental strain KH146-2,100 µg/mL
same,Resistance level to antibiotic,[1],">100,000 (STR) μg ml^−1"
same,Resistance level to antibiotic,[2],">100,000 (STR) μg ml^−1"
same,Resistance level to antibiotic,[3],">100,000 (STR) μg ml^−1"
same,Resistance level to antibiotic,[4],">100,000 (STR) μg ml^−1"
same,Resistance level to antibiotic,[5],">100,000 (STR) μg ml^−1"
same,Resistance level to antibiotic,[6],">100,000 (STR) μg ml^−1"
same,Resistance level to antibiotic,[7],">100,000 (STR) μg ml^−1"
same,Resistance level to antibiotic,[8],">100,000 (STR) μg ml^−1"
same,level of resistance to streptomycin,[9],> 100 mg/mL
same,resistance compared to the wild-type strain,[9],> 1000 fold
same,levels of Str (streptomycin resistance),[10],100 to 200 µg/mL
